In patent publication US10272081B2, “SHIP1 modulators and methods related thereto” (Aquinox Pharmaceuticals (Canada) Inc., priority 2013, dated 2019):

These molecules were tested against T1, His-hSHIP1 enzyme (Homo sapiens, UniProt Q92835) (assay: His-hSHIP1 activity, approach 1 (phosphate release from IP4, Biomol Green)). Conditions: activation of His-hSHIP1; IP4 50 μM; test compound 0-300 μM; no asterisk in Table 2.
T1 construct: His
T1 sequence (Q92835 1-1189): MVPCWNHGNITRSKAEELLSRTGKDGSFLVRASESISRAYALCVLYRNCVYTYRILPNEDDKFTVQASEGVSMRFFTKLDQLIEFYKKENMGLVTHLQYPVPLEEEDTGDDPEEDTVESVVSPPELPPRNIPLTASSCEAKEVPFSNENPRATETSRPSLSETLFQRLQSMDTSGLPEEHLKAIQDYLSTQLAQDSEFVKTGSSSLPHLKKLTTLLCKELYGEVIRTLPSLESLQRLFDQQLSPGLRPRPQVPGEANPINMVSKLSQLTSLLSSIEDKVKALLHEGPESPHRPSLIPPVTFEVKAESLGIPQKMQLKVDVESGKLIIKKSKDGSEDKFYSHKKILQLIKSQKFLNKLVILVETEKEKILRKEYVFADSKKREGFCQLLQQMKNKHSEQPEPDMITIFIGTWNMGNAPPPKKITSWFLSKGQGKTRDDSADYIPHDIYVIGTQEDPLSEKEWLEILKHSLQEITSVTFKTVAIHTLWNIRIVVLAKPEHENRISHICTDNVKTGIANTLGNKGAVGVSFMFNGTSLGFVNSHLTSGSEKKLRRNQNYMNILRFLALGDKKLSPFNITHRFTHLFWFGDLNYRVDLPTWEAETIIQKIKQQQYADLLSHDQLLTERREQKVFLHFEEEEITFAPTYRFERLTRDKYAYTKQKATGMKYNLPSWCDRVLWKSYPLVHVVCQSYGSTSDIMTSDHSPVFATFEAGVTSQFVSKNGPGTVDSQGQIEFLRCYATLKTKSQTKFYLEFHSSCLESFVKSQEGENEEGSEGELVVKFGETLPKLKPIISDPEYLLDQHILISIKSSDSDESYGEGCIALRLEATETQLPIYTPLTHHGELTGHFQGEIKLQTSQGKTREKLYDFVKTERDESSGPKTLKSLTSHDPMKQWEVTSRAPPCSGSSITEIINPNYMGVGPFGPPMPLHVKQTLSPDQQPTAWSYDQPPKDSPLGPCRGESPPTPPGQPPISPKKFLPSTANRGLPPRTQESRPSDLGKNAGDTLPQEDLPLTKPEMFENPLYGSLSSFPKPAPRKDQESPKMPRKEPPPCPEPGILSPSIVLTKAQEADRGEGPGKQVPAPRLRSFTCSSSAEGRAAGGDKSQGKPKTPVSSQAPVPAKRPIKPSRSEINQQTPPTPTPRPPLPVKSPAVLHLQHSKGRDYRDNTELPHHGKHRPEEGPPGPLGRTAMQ
Assay type: biochemical
Description: Test compounds are dissolved in 95% ethanol to form stock solutions. Before screening, the stock solutions are diluted with Phosphatase Assay Buffer (20 mM Tris-HCL, 10 mM MgCl2 pH 7.5, 0.02% Tween 20) to form working assay solutions that contain 10% ethanol. The assay is carried out on 96-well microtiter plates using a modified procedure of that reported by Ong et al., Blood 110, 1942-1949, 2007 and Yang et al., Org Lett 7, 1073-1076, 2005, both of which references are incorporated herein by reference in their entirety.
Data were generated by one of two variant methods. Test compounds are screened by one of two approaches described as follows. In the first approach, each reaction contains 5 μL of His-hSHIP1 enzyme (5-20 ng), 10 μL of the substrate, 1,3,4,5-inositol tetrakisphosphate (IP4; 50 μM final), 5 μL of Phosphatase Assay Buffer, and 5 µL of test compound at various concentrations in 10% ethanol (0-300 μM final). Control blanks are also prepared by replacing His-hSHIP1 enzyme, IP4, or test compounds with Phosphatase Assay Buffer. After adding the reaction components in a 96-well microtiter plate on ice, the reaction is mixed by briefly shaking the plate vigorously. The reaction is then incubated at 37° C. for 15 min with gentle shaking followed by addition of 100 μL of Biomol Green Reagent (BIOMOL, Pa., USA) to terminate the reaction. The free phosphate released from IP4 by His-hSHIP1 binds to the Biomol Green Reagent, which turns the dye to green color. After incubating the mixture for 20 min at room temperature for color development, the absorbance is read with SpectraMax Plus 96-well plate reader (Molecular Devices, Sunnyvale, Calif., USA) at a wavelength of 650 nm.

Row | Compound | Scoring, Approach 1 (% increase relative to background)
1 | COc1cc(OC)cc(C(=O)[C@H]2C(C)=CC[C@H]3C(C)(C)CCC[C@]23C)c1 [Compound No. 51, [(1S,4aS,8aS)-2,5,5,8a-tetramethyl-1,4,4a,5,6,7,8,8a-octahydronaphthalen-1-yl](3,5-dimethoxyphenyl)methanone] | ++ (50 ≤ x < 65)
2 | CC1=CC[C@H]2C(C)(C)CCC[C@]2(C)[C@H]1COc1cc(C)cc(O)c1 [Compound No. 29, 3-{[(1S,4aS,8aS)-2,5,5,8a-tetramethyl-1,4,4a,5,6,7,8,8a-octahydronaphthalen-1-yl]methoxy}-5-methylphenol] | +++ (x ≥65)
3 | COc1cc(OC)cc(C(=O)C[C@H]2[C@@H](C)CC[C@H]3C(C)(C)CCC[C@]23C)c1 [Compound No. 46, 2-[(1S,2S,4aS,8aR)-2,5,5,8a-tetramethyl-decahydronaphthalen-1-yl]-1-(3,5-dimethoxyphenyl)ethan-1-one] | ++ (50 ≤ x < 65)
4 | COc1cc(OC)cc(C(=O)[C@H]2[C@H](C)[C@H](N)C[C@H]3C(C)(C)CCC[C@]23C)c1 [Compound No. 55, (2R,3S,4S,4aS,8aS)-4-[(3,5-dimethoxyphenyl)carbonyl]-3,4a,8,8-tetramethyl-decahydronaphthalen-2-amine] | + (0 < x < 50)
5 | COc1cc(OC)cc(C(=O)[C@H]2[C@@H](C)[C@H](O)C[C@H]3C(C)(C)CCC[C@]23C)c1 [Compound No. 52, (2R,3R,4S,4aS,8aS)-4-[(3,5-dimethoxyphenyl)carbonyl]-3,4a,8,8-tetramethyl-decahydronaphthalen-2-ol] | +++ (x ≥65)
6 | COc1cc(C)cc(C(=O)[C@H]2[C@@H](C)[C@H](O)C[C@H]3C(C)(C)CCC[C@]23C)c1 [Compound No. 6, (2R,3R,4S,4aS,8aS)-4-[(3-methoxy-5-methylphenyl)carbonyl]-3,4a,8,8-tetramethyl-decahydronaphthalen-2-ol] | + (0 < x < 50)
7 | COc1cc(O)cc(C(=O)C[C@H]2[C@@H](C)CC[C@H]3C(C)(C)CCC[C@]23C)c1 [Compound No. 47, 2-[(1S,2S,4aS,8aR)-2,5,5,8a-tetramethyl-decahydronaphthalen-1-yl]-1-(3-hydroxy-5-methoxyphenyl)ethan-1-one] | ++ (50 ≤ x < 65)
8 | COc1cc(C)cc(C(=O)[C@H]2[C@H](C)C(NCCCN)C[C@H]3C(C)(C)CCC[C@]23C)c1.Cl.Cl (stereo partly drawn) [Compound No. 11, (3S,4S,4aS,8aS)-N-(3-aminopropyl)-4-[(3-methoxy-5-methylphenyl)carbonyl]-3,4a,8,8-tetramethyl-decahydronaphthalen-2-amine dihydrochloride] | +++ (x ≥65)
9 | COc1cc(C)cc(OC[C@@H]2[C@@]3(C)CCCC(C)(C)[C@@H]3CC[C@@]2(C)O)c1 [Compound No. 27, (1S,2R,4aS,8aS)-1-(3-methoxy-5-methylphenoxymethyl)-2,5,5,8a-tetramethyl-decahydronaphthalen-2-ol] | ++ (50 ≤ x < 65)
10 | COc1cc(OC)cc(C(=O)[C@H]2[C@@H](C)C(=O)C[C@H]3C(C)(C)CCC[C@]23C)c1 [Compound No. 53, (3R,4S,4aS,8aS)-4-[(3,5-dimethoxyphenyl)carbonyl]-3,4a,8,8-tetramethyl-decahydronaphthalen-2-one] | ++ (50 ≤ x < 65)
11 | COc1ccc(CN[C@@H]2C[C@H]3C(C)(C)CCC[C@]3(C)[C@@H](C(=O)c3cc(OC)cc(OC)c3)[C@@H]2C)cc1 [Compound No. 54, (2R,3S,4S,4aS,8aS)-4-[(3,5-dimethoxyphenyl)carbonyl]-N-[(4-methoxyphenyl)methyl]-3,4a,8,8-tetramethyl-decahydronaphthalen-2-amine] | ++ (50 ≤ x < 65)
12 | C[C@H]1CC[C@H]2C(C)(C)CCC[C@]2(C)[C@H]1CCc1cc(O)cc(O)c1 [Compound No. 62, 5-{2-[(1S,2S,4aS,8aR)-2,5,5,8a-tetramethyl-decahydronaphthalen-1-yl]ethyl}benzene-1,3-diol] | +++ (x ≥65)
13 | Cc1cc(O)cc(C[C@H]2[C@@H](CO)CC[C@H]3C(C)(C)CCC[C@]23C)c1 [Compound No. 17, 3-{[(1S,2S,4aS,8aR)-2-(hydroxymethyl)-5,5,8a-trimethyl-decahydronaphthalen-1-yl]methyl}-5-methylphenol] | ++ (50 ≤ x < 65)
14 | COc1cc(OC)cc(C(=O)[C@@H]2[C@@]3(C)CCCC(C)(C)[C@@H]3CC[C@@]2(C)O)c1 [Compound No. 50, (1R,2R,4aS,8aS)-1-[(3,5-dimethoxyphenyl)carbonyl]-2,5,5,8a-tetramethyl-decahydronaphthalen-2-ol] | ++ (50 ≤ x < 65)
15 | C[C@@H]1[C@H](N)C[C@H]2C(C)(C)CCC[C@]2(C)[C@H]1C(=O)c1cc(O)cc(O)c1 [Compound No. 56, 5-{[(1S,2S,3R,4aS,8aS)-3-amino-2,5,5,8a-tetramethyl-decahydronaphthalen-1-yl]carbonyl}benzene-1,3-diol] | + (0 < x < 50)
16 | Cc1cc(O)cc(C(=O)[C@H]2[C@H](C)C(O)C[C@H]3C(C)(C)CCC[C@]23C)c1 (stereo partly drawn) [Compound No. 23, (3S,4S,4aS,8aS)-4-[(3-hydroxy-5-methylphenyl)carbonyl]-3,4a,8,8-tetramethyl-decahydronaphthalen-2-ol] | + (0 < x < 50)
17 | CC1=CC[C@H]2C(C)(C)CCC[C@]2(C)C1C(=O)c1cc(C)cc(O)c1 (stereo partly drawn) [Compound No. 4, 3-{[(4aS,8aS)-2,5,5,8a-tetramethyl-1,4,4a,5,6,7,8,8a-octahydronaphthalen-1-yl]carbonyl}-5-methylphenol] | ++ (50 ≤ x < 65)
18 | COc1cc(OC)cc(C(=O)C[C@@H]2[C@@]3(C)CCCC(C)(C)[C@@H]3CC[C@@]2(C)O)c1 [Compound No. 45, 2-[(1R,2R,4aS,8aS)-2-hydroxy-2,5,5,8a-tetramethyl-decahydronaphthalen-1-yl]-1-(3,5-dimethoxyphenyl)ethan-1-one] | ++ (50 ≤ x < 65)
19 | COc1cc(O)cc(NC(=O)C2=C(C)CC[C@H]3C(C)(C)CCC[C@]23C)c1 [Compound No. 42, (4aS,8aS)-N-(3-hydroxy-5-methoxyphenyl)-2,5,5,8a-tetramethyl-3,4,4a,5,6,7,8,8a-octahydronaphthalene-1-carboxamide] | + (0 < x < 50)
20 | Cc1cc(O)cc(C(=O)[C@H]2[C@H](C)C(=O)C[C@H]3C(C)(C)CCC[C@]23C)c1 [Compound No. 8, (3S,4S,4aS,8aS)-4-[(3-hydroxy-5-methylphenyl)carbonyl]-3,4a,8,8-tetramethyl-decahydronaphthalen-2-one] | + (0 < x < 50)
21 | CC1=C(C(=O)Nc2cc(O)cc(O)c2)[C@@]2(C)CCCC(C)(C)[C@@H]2CC1 [Compound No. 43, (4aS,8aS)-N-(3,5-dihydroxyphenyl)-2,5,5,8a-tetramethyl-3,4,4a,5,6,7,8,8a-octahydronaphthalene-1-carboxamide] | + (0 < x < 50)
